pKi: −log10 of the molar value. Where two headings read alike, the source gives them in different places.
How the values were obtained:
α-Chymotrypsin = α-Chymotrypsin (Bos taurus, UniProt P00766); test: α-chymotrypsin inhibition (kon and Ki*); assay type: biochemical; conditions: for pKi: Ki* = koff/kon
Procedure: Measurement of the inhibition constant, Ki, of a HLE-inhibitor complex has been described for "truly reversible inhibition constants" usually concerning competitive inhibitors. [Cha, Biochem. Pharmacol., 24, 2177-2185 (1975)]. […] Thus, instead of measuring a Ki, a Ki * is calculated which is defined as the ratio of the koff /kon, the rate of reactivation of the enzyme to the rate of inactivation of the enzyme. The values of koff and kon are measured and Ki * is then calculated. The rate of inactivation, kon, of enzymatic activity was determined for the compounds tested by measuring the enzyme activity of an aliquot of the respective enzyme as a function of time after addition of the test compound. […] The rate of inactivation is then equal to [formula] where [I] is the concentration of the inhibiting compound. The reactivation constant, koff, is similarly determined and the inhibition constant, Ki *, is then calculated as Ki *=koff /kon The values obtained for kon and Ki * for specific substituted saccharin derivatives are shown in TABLE F, the compounds being identified by the Example numbers above where their preparations are described.

human leukocyte elastase = biological target: T1, human leukocyte elastase (Homo sapiens, UniProt P08246); test: elastase inhibition using human leukocyte elastase (kon and Ki*); assay type: biochemical; conditions: for pKi: Ki* = koff/kon, read-out: Elastase Ki *; for kon: read-out: Elastase 10^-3 × kon
T1 sequence (P08246 30-267): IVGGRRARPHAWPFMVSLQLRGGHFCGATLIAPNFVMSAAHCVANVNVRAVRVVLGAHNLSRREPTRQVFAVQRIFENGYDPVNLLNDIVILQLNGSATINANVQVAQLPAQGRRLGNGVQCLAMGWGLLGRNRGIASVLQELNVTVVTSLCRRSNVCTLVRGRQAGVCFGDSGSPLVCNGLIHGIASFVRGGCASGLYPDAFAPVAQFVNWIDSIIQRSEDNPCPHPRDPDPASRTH

[1] = read-out: α-Chymotrypsin 10^-3 × kon
[2] = rate of inactivation of enzyme, value is 10^-3 × kon

SMILES | pKi (α-Chymotrypsin) | kon (α-Chymotrypsin; [1]) [M⁻¹ s⁻¹] | pKi (human leukocyte elastase) | kon (human leukocyte elastase; [2]) [M⁻¹ s⁻¹] | kon (α-Chymotrypsin; [2]) [M⁻¹ s⁻¹] | kon (human leukocyte elastase) [M⁻¹ s⁻¹]
O=C1c2ccccc2S(=O)(=O)N1CS(=O)(=O)c1ncccn1 [Example 14, 2-(2-pyrimidylsulfonylmethyl)saccharin] | 6.41 | 2800 | 6.86 | 600 |  | 
O=C1c2ccccc2S(=O)(=O)N1C[S+]([O-])c1nnnn1-c1ccccc1 (stereo not shown) [Example 10, 2-(1-phenyl-1H-tetrazol-5-ylsulfinylmethyl)saccharin] | 6.80 | 7000 | 7.96 | 7000 |  | 
O=C1c2c(Cl)cccc2S(=O)(=O)N1Cn1nnn(-c2ccccc2)c1=S [Example 5, 4-chloro-2-(4-phenyl-5-thioxotetrazolin-1-ylmethyl)saccharin] | 7.60 | 6000 | 8.22 | 44000 |  | 
Cn1nnnc1SCN1C(=O)c2ccccc2S1(=O)=O [Example 8, 2-(1-methyl-1H-tetrazol-5-ylthiomethyl)saccharin] | 6.28 |  |  | 1000 | 2100 | 
O=C1c2c(Cl)cccc2S(=O)(=O)N1CCl [Example 3, 2-chloromethyl-4-chlorosaccharin] | 7.59 | 5800 | 9.30 | 450000 |  | 
CC(=O)OCN1C(=O)c2c(C)cccc2S1(=O)=O [Example 1, 2-acetoxymethyl-4-methylsaccharin] | 6.04 | 1200 | 6.99 | 630 |  | 
COc1ccc2c(c1OC)C(=O)N(CCl)S2(=O)=O [Example 22F] |  |  | 8.19 | 20000 |  | 
CC(C)Oc1cccc2c1C(=O)N(CSc1nnnn1-c1ccccc1)S2(=O)=O [Example 30AU] |  |  |  | 8900 |  | 
CC(C)(C)CC(C)(C)c1ccc2c(c1)C(=O)N(CSc1nnnn1-c1ccccc1)S2(=O)=O [Example 30A] |  |  | 4.98 |  |  | 
O=C1c2ccccc2S(=O)(=O)N1CSc1nnc(SCCN2CCCCC2)s1 [Example 33C, 2-(5-[2-(1-piperidinyl)-ethylthio]-1,3,4-thiadiazol-2-ylthiomethyl)saccharin] |  |  | 6.46 | 200 |  | 
CC(C)c1cccc2c1C(=O)N(Cn1nnn(-c3cccnc3)c1=S)S2(=O)=O [Example 30Z] |  |  | 9.30 | 70000 |  | 
O=C(O)CCC(=O)Nc1cccc(-n2nnnc2SCN2C(=O)c3ccccc3S2(=O)=O)c1 [Example 35, 2-[1-(3-succinoylaminophenyl)-1H-tetrazol-5-ylthiomethyl]saccharin] |  |  | 7.66 | 3600 |  | 
O=C1c2ccccc2S(=O)(=O)N1C(Sc1nnnn1-c1ccccc1)c1ccccc1 (stereo not shown) [Example 19, 2-(1-phenyl-1H-tetrazol-5-ylthiophenylmethyl)saccharin] |  |  | 5.07 |  |  | 
COC(=O)c1cccc2c1C(=O)N(CCl)S2(=O)=O [Example 22G] |  |  | 7.30 | 3000 |  | 
O=C1c2cc([N+](=O)[O-])ccc2S(=O)(=O)N1CSc1nnnn1-c1ccccc1 [Example 11, 5-nitro-2-(1-phenyl-1H-tetrazol-5-ylthiomethyl)saccharin] |  |  |  |  |  | 4600
O=C1c2ccccc2S(=O)(=O)N1CS(=O)(=O)c1ccccc1 [Example 12, 2-(phenylsulfonylmethyl)saccharin] | 6.00 | 1100 | 7.09 | 970 |  | 

SMILES | pKi (α-Chymotrypsin) | kon (α-Chymotrypsin; [1]) [M⁻¹ s⁻¹] | pKi (human leukocyte elastase) | kon (human leukocyte elastase; [2]) [M⁻¹ s⁻¹] | kon (α-Chymotrypsin; [2]) [M⁻¹ s⁻¹] | kon (human leukocyte elastase) [M⁻¹ s⁻¹]
CC(=O)OCN1C(=O)c2c(Cl)cccc2S1(=O)=O [Example 2, 2-acetoxymethyl-4-chlorosaccharin] | 7.29 | 2900 | 7.35 | 4900 |  | 
O=C1c2ccccc2S(=O)(=O)N1C[S+]([O-])c1ncccn1 (stereo not shown) [Example 13, 2-(2-pyrimidylsulfinylmethyl)saccharin] | 6.37 | 2600 | 6.55 | 300 |  | 
O=C1c2ccccc2S(=O)(=O)N1CSc1nncn1-c1ccccc1 [Example 30I] |  |  | 6.19 | 450 |  | 
O=C1c2ccccc2S(=O)(=O)N1CSc1nnnn1CCO [Example 30AQ] |  |  | 6.59 | 900 |  | 
O=C1c2ccccc2S(=O)(=O)N1CSc1nc2ccc([N+](=O)[O-])cc2o1 [Example 30BE] |  |  | 6.60 | 7400 |  | 
O=C(O)Cn1nnnc1SCN1C(=O)c2ccccc2S1(=O)=O [Example 34, 2-[1-(2-carboxymethyl)-1H-tetrazol-5-ylthiomethyl]saccharin] |  |  | 6.59 | 400 |  | 
CC(=O)Nc1cccc(-n2nnnc2SCN2C(=O)c3ccccc3S2(=O)=O)c1 [Example 6, 2-[1-(3-acetamidophenyl)-1H-tetrazol-5-ylthiomethyl]saccharin] | 6.52 | 3700 | 7.82 | 5500 |  | 
CCOc1cccc2c1C(=O)N(CSc1nnnn1CC(=O)N(C)C)S2(=O)=O [Example 30AX] |  |  | 7.80 | 7500 |  | 
O=C1c2c(-c3ccccc3)cccc2S(=O)(=O)N1CCl [Example 18, 2-chloromethyl-4-phenylsaccharin] | 6.21 | 210 | 7.00 | 1000 |  | 
O=C(O)c1cccc(-n2nnn(CN3C(=O)c4ccccc4S3(=O)=O)c2=S)c1 [Example 30-O] |  |  | 5.70 | 30 |  | 
CCC(C)c1cccc2c1C(=O)N(CCl)S2(=O)=O (stereo not shown) [Example 22B, 2-chloromethyl-4-sec.-butylsaccharin] |  |  | 7.05 | 2400 |  | 
O=C1c2ccccc2S(=O)(=O)N1CSc1nnc2ccccn12 [Example 30N] |  |  | 6.66 | 250 |  | 
CC(C)c1cccc2c1C(=O)N(CSc1nnnn1CC(=O)N(C)C)S2(=O)=O [Example 30AW] |  |  | 9.00 | 30000 |  | 
Nc1cccc(-n2nnnc2SCN2C(=O)c3ccccc3S2(=O)=O)c1 [Example 30C] |  |  | 7.77 | 2500 |  | 
O=C1c2ccc([N+](=O)[O-])cc2S(=O)(=O)N1CSc1nnnn1-c1ccccc1 [Example 31C] |  |  | 6.52 | 3400 |  | 
